Data from US12410192B2, “Compound for inhibiting and inducing degradation of EGFR kinase” (BEIJING TIDE PHARMACEUTICAL CO., LTD., priority 2019, dated 2025).
Read-outs that look alike come from different tables or passages of the source.

Columns and labels:
[1] = test system: Ba/F3 (EGFR^L858R/T790M/C797S) cells; assay: Assay of activity on Ba/F3 (EGFR^L858R/T790M/C797S) cells (CTG, 72 h); assay type: cell-based
Experimental: (§1) 30 nL of the compound dilution was added to a 384-well plate by Echo (Labcyte, Echo550). […] 2. Data Analysis
(§2) The percent inhibition rate (% inhibition) was calculated by the following formula
(§3) [formula] • LUMcmpd: Luminescence value of assay compound. • LUMpositive: Average LUM value of positive drug (Brigatinib) with a concentration of 10 μM. • LUMvehicle: Average LUM value of negative control group without drug treatment.
(§4) The nonlinear regression curve (dose response-variable slope) between the value of inhibition rate (%) and the logarithm of compound concentration was fitted with graphpad prism 8.0, the effect dose curve of compound was drawn, and the IC50 value was calculated. Y=Bottom+(Top−Bottom)/(1+10^((LogIC50−X)*HillSlope)) • X-axis: logarithm of compound concentration; Y axis: inhibition rate (% inhibition). 3.

[2] = test system: Ba/F3 (EGFR^Del19/T790M/C797S) cells; assay: Assay of activity on Ba/F3 (EGFR^Del19/T790M/C797S) cells (CTG, 72 h); assay type: cell-based
Experimental: as §1, §2, §3, §4

[3] = molecular target: T1, EGFR^L858R/T790M/C797S (Homo sapiens (Human), UniProt P00533, C797S/L858R/T790M); assay: Assay of inhibitory activity on EGFR (HTRF kinase assay); assay type: biochemical; settings: mutant EGFR kinase
Experimental: Formula of inhibition rate (%): […]
The nonlinear regression curve (dose response-variable slope) between the value of inhibition rate (%) and the logarithm of compound concentration was fitted with graphpad prism 8.0, the effect dose curve of compound was drawn, and IC50 value was calculated.

[4] = molecular target: T1, EGFR^L858R/T790M/C797S; assay: Assay of activity of compounds for inducing EGFR^L858R/T790M/C797S protein degradation; assay type: cell-based; settings: Ba/F3 (EGFR^L858R/T790M/C797S) cells
Experimental: In order to further explain the reason why the compounds of the present disclosure have inhibitory activity on Ba/F3 (EGFR^L858R/T790M/C797S) cells, representative compounds D3 was selected to study the mechanism of action of the compounds, and observe their effects on EGFR^L858R/T790M/C797S protein levels.
• Ba/F3 (EGFR^L858R/T790M/C797S) cells were cultured according to the culture conditions recommended by ATCC, and analyzed by index. • Complete medium: 1640 medium, 10% FBS, 1× glutamine, 1× penicillin-streptomycin. • Culture conditions: incubated at 37° C., 95% air, 5% CO2 incubator. (2) Compound Stock Solution:
10 mM stock solution in DMSO, stored at −20° C.
• The cells in the cell culture bottle were collected, and the cells with viability of >90% can be used in the assay. Cells were seeded in a 96-well plate with 40 μL cells, 1*10^5 cells/well. […] (6) Detection: • 1) 1 μg/mL of EGF activated cells were treated for 10 min; • 2) After the compound treatment, lysis buffer was added to lyse cells; 10 μL of cell lysate was transferred to a 384-well plate; in addition, 5 μL of acceptor mix was added to the 384-well plate, and shaken on a shaker for 1-2 min; • 3) 5 μL of donor mix was added to each well; the 384-well plate was sealed, shaken on a shaker for 1-2 min, left in the dark at room temperature overnight, and read with an enzyme labeling instrument. […]

Row | IC50 [3] [nM] | IC50 ([1]; Mus musculus, BaF3) [nM] | IC50 ([2]; Ba/F3 EGFR-Del19/T790M/C797S) [nM] | effect on EGFR^L858R/T790M/C797S protein level (in words) ([4]; 6 h, dose-dependent) | DC50 ([4]; 6 h treatment, 0.01 nM to 1000 nM, read-out: DC50 (EGFR^L858R/T790M/C797S protein level)) [nM] | Compound | IC50 [1] [nM] | IC50 [2] [nM]
1 |  |  |  |  |  | 3-(1-oxo-4-(4-(4-(((R,E)-1^1,2^6,7-trimethyl-3-oxo-5^2,5^3-dihydro-1^1H,5^1H-11-oxa-4-aza-5 (2,1)-benzo[d]imidazole-2 (2,4)-pyridine-1 (4,5)-pyrazolecyclododecan-5^6-yl)methyl)piperazin-1-yl)butyl)isoindol-2-yl)piperidine-2,6-dione [Compound D1] | 2.12 | 2.7
2 |  |  |  |  |  | 3-(1-oxo-4-(5-(4-(((R,E)-1^1,2^6,7-trimethyl-3-oxo-5^2,5^3-dihydro-1^1H,5^1H-11-oxa-4-aza-5 (2,1)-benzo[d]imidazole-2 (2,4)-pyridine-1 (4,5)-pyrazolecyclododecan-5^6-yl)methyl)piperazin-1-yl) pent-1-yn-1-yl)isoindol-2-yl)piperidine-2,6-dione [Compound D2] | 3.96 | 3.89
3 | 1.09 | 2.88 | 3.13 | significantly reduces | 9.28 | Cc1cc2cc(n1)-c1cnn(C)c1OCCC[C@@H](C)CN1/C(=N/C2=O)Nc2ccc(CN3CCN(CCCCCc4cccc5c4CN(C4CCC(=O)NC4=O)C5=O)CC3)cc21 (stereo partly drawn) [Compound D3, 3-(1-oxo-4-(5-(4-(((R,E)-1^1,2^6,7-trimethyl-3-oxo-5^2,5^3-dihydro-1^1H,5^1H-11-oxa-4-aza-5 (2,1)-benzo[d]imidazole-2 (2,4)-pyridine-1 (4,5)-pyrazolecyclododecan-5^6-yl)methyl)piperazin-1-yl)pentyl)isoindol-2-yl)piperidine-2,6-dione] |  | 
4 | 35.9 | 11.6 | 10.7 |  |  | Cc1cc2cc(n1)-c1cnn(C)c1OCCC[C@@H](C)CN1/C(=N/C2=O)Nc2ccc(CN3CCN(CCCCCCCc4cccc5c4CN(C4CCC(=O)NC4=O)C5=O)CC3)cc21 (stereo partly drawn) [Compound D5, 3-(1-oxo-4-(7-(4-(((R,E)-1^1,2^6,7-trimethyl-3-oxo-5^2,5^3-dihydro-1^1H,5^1H-11-oxa-4-aza-5 (2,1)-benzo[d]imidazole-2 (2,4)-pyridine-1 (4,5)-pyrazolecyclododecan-5^6-yl)methyl)piperazin-1-yl)heptyl)isoindol-2-yl)piperidine-2,6-dione] |  | 

Row | Compound | IC50 [3] [nM] | IC50 ([1]; Mus musculus, BaF3) [nM] | IC50 ([2]; Ba/F3 EGFR-Del19/T790M/C797S) [nM] | effect on EGFR^L858R/T790M/C797S protein level (in words) ([4]; 6 h, dose-dependent) | DC50 ([4]; 6 h treatment, 0.01 nM to 1000 nM, read-out: DC50 (EGFR^L858R/T790M/C797S protein level)) [nM] | IC50 [1] [nM] | IC50 [2] [nM]
5 | Cc1cc2cc(n1)-c1cnn(C)c1OCCC[C@@H](C)CN1/C(=N/C2=O)Cc2ccc(CN3CCN(CCCCCCc4cccc5c4CN(C4CCC(=O)NC4=O)C5=O)CC3)cc21 (stereo partly drawn) [Compound D4, 3-(1-oxo-4-(6-(4-(((R,E)-1^1,2^6,7-trimethyl-3-oxo-5^2,5^3-dihydro-1^1H,5^1H-11-oxa-4-aza-5 (2,1)-benzo[d]imidazole-2 (2,4)-pyridine-1 (4,5)-pyrazolecyclododecan-5^6-yl)methyl)piperazin-1-yl)hexyl)isoindol-2-yl)piperidine-2,6-dione] | 10.1 |  |  |  |  | 4.39 | 4.41
6 | C=CC(=O)Nc1cc(Nc2nccc(-c3cn(C)c4ccccc34)n2)c(OC)cc1N(C)CCN(C)C [Osimertinib, reference compound] |  | > 1000 | > 1000 |  |  |  | 
